Experimental data from patent US6436344B1, “Method of inactivating pathogens” (American National Red Cross, priority 1999, dated 2002).
“And” between values parts separate entries of the source, which are not always exact repeats. Equal values may be shown once. Read-outs that look alike come from different tables or passages of the source.

Assays:
[1] = system: porcine parvovirus (PPV); assay: Porcine parvovirus inactivation by CAA, TCID50 titration on PK-13 cells (Example 3); assay type: cell-based, PPV strain NADL-2
Method: An aqueous solution of chloroacetaldehyde (Aldrich Chemical, Milwaukee, Wis., Product 31,727-6, Lot KS02106MR, 50% in water) was diluted to the desired mM concentrations (0.5, 1, 2 and 5 mM) in 0.05 M sodium acetate buffer, pH 5.5. The 2 mM and 5 mM CAA samples were also prepared in 2.5% IgG solution, buffered at pH 5.5 with sodium acetate. Positive hold controls contained 0.05 M sodium acetate buffer, pH 5.5, or acetate-buffered 2.5% IgG without CAA. Positive controls and test samples were spiked 1:40 with porcine parvovirus (ATCC VR-742, PPV strain NADL-2). Aliquots were removed for immediate viral assay and the remaining samples were incubated at 37° C. for 4, 7 and 22.5 hours and then assayed to determine viral titers.
(§1) Viral assays were performed by the TCID50 method as described by Miekka et al, HEMOPHILIA 4, 401-408 (1998). Target porcine kidney cells, PK-13 (ATCC CRC-6490), were seeded into 96-well microtiter plates and grown to 50-70% confluence. Five-fold serial dilutions (200 μL) of samples were prepared in cell culture medium and added to four wells each. Plates were incubated for 7 days at 37° C. in humidified 5% carbon dioxide. Cell layers were analyzed for cytopathic effect, and log10 viral titers were calculated by the method of Kärber, ARCH. Exp. PATHOL. PHARMAKOL., 162, 480-483 (1931). The average PPV reduction rate (log10/hour) was computed by regression analysis of the viral titers at each of the time points tested. Viral titers that had decreased to the assay limit were excluded from this calculation.

[2] = system: porcine parvovirus (PPV); assay: Inactivation of PPV by CAA in the presence of Factor VIII (Example 6); assay type: cell-based
Method: as §1
A stock solution of 100 mM CAA in water was neutralized to pH 7.0 and was added to CFVIII to give final CAA concentrations of 3 mM and 6 mM and final CFVIII concentration of 100 clotting units/mL. All samples were buffered at pH 5.5 with 0.02 M sodium acetate. PPV was spiked into the samples at 1:40 ratio. The samples were incubated for 4 hours at 37° C. The positive hold controls were acetate buffer or Factor VIII, spiked with PPV and incubated 4 hours at 37° C. Viral assays and cell culture techniques were performed as described in EXAMPLE 3. Viral reduction factors were calculated as the difference between the log10 titers of the non-incubated and 4-hour incubated samples.

[3] = molecular target: T1, human coagulation Factor VIII (Homo sapiens, UniProt P00451); assay: Preservation of Factor VIII clotting activity, one-stage APTT (Example 5); assay type: biochemical; settings: for FVIII u/mL after 37° C. incubation, 3 hours: 3 hours at 37° C.
T1 construct: The CFVIII product tested was ‘Antihemophilic Factor, Human, Method M, Solvent and Detergent Treated’ (American Red Cross); tissue American Red Cross; host or cells: human plasma (own knowledge: Method M is a plasma-derived, monoclonal-antibody-purified concentrate)
T1 sequence (P00451 20-1667 limits assumed): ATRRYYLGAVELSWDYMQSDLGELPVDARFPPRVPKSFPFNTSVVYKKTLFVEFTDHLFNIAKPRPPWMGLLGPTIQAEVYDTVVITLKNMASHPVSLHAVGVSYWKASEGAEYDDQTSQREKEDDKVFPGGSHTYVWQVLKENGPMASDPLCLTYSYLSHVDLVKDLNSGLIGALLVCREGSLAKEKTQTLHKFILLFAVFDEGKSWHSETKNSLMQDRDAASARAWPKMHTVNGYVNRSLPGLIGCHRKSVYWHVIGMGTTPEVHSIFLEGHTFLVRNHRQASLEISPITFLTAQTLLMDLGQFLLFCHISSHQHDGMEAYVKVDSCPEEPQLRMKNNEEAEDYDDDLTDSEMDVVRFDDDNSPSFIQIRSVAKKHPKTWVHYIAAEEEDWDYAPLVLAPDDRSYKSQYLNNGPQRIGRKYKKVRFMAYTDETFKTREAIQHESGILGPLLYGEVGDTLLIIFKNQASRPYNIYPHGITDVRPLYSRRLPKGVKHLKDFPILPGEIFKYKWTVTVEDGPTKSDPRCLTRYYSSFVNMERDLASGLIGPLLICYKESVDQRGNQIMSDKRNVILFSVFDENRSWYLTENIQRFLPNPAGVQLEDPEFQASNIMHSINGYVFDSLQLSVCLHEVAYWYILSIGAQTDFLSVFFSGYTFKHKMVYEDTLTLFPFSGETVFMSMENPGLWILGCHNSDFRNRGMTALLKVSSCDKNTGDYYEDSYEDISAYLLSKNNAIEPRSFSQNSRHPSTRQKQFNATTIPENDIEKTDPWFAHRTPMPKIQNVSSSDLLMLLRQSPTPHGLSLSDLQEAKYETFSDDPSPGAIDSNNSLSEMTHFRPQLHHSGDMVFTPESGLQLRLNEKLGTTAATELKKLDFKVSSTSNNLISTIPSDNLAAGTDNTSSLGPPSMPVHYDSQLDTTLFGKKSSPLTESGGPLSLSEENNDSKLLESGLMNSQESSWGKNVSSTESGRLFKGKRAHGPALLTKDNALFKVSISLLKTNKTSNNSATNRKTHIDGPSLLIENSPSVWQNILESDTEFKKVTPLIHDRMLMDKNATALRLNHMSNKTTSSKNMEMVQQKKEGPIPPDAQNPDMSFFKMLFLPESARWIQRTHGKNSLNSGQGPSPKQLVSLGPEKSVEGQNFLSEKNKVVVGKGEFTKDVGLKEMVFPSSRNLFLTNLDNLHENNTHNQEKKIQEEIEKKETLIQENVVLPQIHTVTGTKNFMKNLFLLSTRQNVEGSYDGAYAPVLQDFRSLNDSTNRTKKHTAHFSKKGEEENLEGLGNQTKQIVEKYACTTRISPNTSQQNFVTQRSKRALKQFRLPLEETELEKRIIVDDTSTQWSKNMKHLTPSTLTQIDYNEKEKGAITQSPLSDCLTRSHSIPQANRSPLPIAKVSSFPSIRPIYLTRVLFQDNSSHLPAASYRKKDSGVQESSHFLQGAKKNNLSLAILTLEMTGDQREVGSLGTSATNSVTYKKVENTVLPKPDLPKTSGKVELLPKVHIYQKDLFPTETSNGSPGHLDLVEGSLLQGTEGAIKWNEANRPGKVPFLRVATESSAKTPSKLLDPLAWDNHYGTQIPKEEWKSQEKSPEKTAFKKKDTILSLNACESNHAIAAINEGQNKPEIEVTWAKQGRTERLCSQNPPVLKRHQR
T1 sequence (P00451 1668-2351 limits assumed): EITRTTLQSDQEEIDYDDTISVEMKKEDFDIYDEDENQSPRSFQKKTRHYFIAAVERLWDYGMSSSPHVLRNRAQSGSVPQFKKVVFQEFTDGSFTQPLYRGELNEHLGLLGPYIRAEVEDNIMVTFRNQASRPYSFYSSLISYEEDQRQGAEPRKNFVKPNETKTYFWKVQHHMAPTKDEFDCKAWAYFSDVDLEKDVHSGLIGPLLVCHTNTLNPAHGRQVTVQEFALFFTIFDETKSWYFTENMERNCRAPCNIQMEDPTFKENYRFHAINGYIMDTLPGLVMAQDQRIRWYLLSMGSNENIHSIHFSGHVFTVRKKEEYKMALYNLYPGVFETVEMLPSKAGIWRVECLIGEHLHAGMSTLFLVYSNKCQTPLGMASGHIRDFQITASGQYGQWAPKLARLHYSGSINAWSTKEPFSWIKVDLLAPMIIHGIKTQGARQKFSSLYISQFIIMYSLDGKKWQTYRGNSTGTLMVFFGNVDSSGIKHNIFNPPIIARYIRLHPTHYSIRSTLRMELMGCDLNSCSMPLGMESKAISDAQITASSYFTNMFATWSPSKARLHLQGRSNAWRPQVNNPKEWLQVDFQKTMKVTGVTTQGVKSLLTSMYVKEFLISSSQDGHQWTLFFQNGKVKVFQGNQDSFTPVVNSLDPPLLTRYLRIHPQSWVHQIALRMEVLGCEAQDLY

[4] = molecular target: T2, human coagulation Factor IX (Homo sapiens, UniProt P00740); assay: Preservation of Factor IX clotting activity, one-stage APTT (Example 7); assay type: biochemical; settings: 0.01 M calcium chloride, pH 6.2
T2 construct: highly-purified human coagulation Factor IX, a labile plasma clotting factor; from tissue
T2 sequence (P00740 47-461): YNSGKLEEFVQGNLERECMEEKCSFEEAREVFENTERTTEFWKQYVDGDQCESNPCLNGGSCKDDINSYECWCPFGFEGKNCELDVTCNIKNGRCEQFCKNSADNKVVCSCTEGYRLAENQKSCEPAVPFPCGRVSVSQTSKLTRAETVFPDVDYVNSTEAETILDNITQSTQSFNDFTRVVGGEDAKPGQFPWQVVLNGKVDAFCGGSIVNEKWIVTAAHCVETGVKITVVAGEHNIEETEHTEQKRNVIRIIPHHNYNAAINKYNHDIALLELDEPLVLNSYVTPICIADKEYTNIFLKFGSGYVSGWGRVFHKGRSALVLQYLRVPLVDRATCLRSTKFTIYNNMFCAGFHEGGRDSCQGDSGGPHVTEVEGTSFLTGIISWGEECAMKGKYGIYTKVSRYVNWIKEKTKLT

[5] = system: pseudorabies virus (PRV); assay type: cell-based; settings: for Pseudorabies Virus Av. rate / Pseudorabies Virus Reduction Factor: pH 5.5, 4 hours at 37° C.
[6] = Effect of pH 12, heat and thiosulfate on iodoacetaldehyde, GC-MS and NMR (Example 8); assay type: physicochemical
[7] = Relative amount of IAA and its hydrated form in water by NMR (Example 1C); assay type: physicochemical; settings: water solution, NMR estimate, 40° C.
Method: One-dimensional ^1H-NMR spectra were recorded on a Bruker DRX 500 spectrometer at 40° C. The signal for TSP was used as internal reference (δH=0.0 ppm). A sample was prepared by adding 50 μl of the solution purified by reverse phase chromatography (RPC) to 650 μl D2O and subsequently transferring the diluted sample to a 5 mm NMR tube. For the quantitative measurement, a solution of Sodium Trimethyl Silyl Propionic acid (TSP, 0.991 mg/ml) was prepared; and 10 μl of that solution was added to the sample. By comparing the integral of the methyl groups in TSP with the integral of the CH2-group in hydrated IAA, an estimate of the IAA concentration in the sample could be made. Iodoacetaldehyde is in equilibrium with its hydrated form in a water solution. An estimate based on NMR is that the hydrated form accounts for approximately 90% of the sample, and the aldehyde form approximately 10%. This equilibrium should be taken into account when calculating concentration of IAA in aqueous media.

[8] = system: porcine parvovirus (PPV); assay: Porcine parvovirus inactivation by IAA, TCID50 titration on PK 15 cells (Example 2); assay type: cell-based, strain PPV 893/76; settings: for PPV Reduction Factor: 4 hours
Method: RPC-purified IAA was diluted to the desired μM concentrations in water or in 5% IgG solution (>98% pure, KABI, Stockholm, Sweden), and the pH was adjusted to 5.00 with 0.4 M sodium phosphate. […] The samples were then gel filtered through sterile PD 10 columns containing Sephadex G-25 (Amersham Pharmacia Biotech Uppsala, Sweden) equilibrated with 25 ml of cell culture medium. A sample (2 ml) was layered onto the column and the fall-through was discarded. Then 3.2 ml cell culture medium (3.2 ml) was added to the column and the first 0.5 mL of eluate was discarded. The remaining eluate was collected for viral assay. The resulting diluting factor was 1.48. Materials for viral assays were as follows. […] The cell supernatant was clarified by low speed centrifugation and filtered through 0.45 μm and 0.2 μm filters before storing at -70° C. in aliquots. The target cells for titration of PPV were porcine kidney cell line PK 15 (ATCC CCL-33). The cells were cultivated according to conventional cell culture procedures in EMEM with non-essential amino acids (SVA, Uppsala, Sweden), supplemented with 120 μg/ml of penicillin G, 100 μg/ml of streptomycin sulfate and 5% fetal calf serum. Cells were seeded in 96 well microtiter plates (Nunc). Viral assays were performed by a TCID50 method. The original virus stock (positive control sample) and the test samples were serially diluted ten-fold in cell culture medium shortly after sampling. Aliquots (50 μl) of each dilution were added to eight wells of the 96-well microtiter plates. […] After incubation for 7 days at 37° C. in a humidified atmosphere of 5% CO2, the cells were rinsed in physiological saline and fixed in 80% acetone for 30 minutes at -20° C., after which the fixation fluid was removed and the plates were dried at 37° C. Virus infected cells were visualized by an immunoperoxidase method (Jensen […]. 22 (1981) 85-98; […]., RECENT ADVANCES IN VIRUS DIAGNOSTICS, McNutly and […]. (1984) 37-46; Saunders G. C., Am. J. VET. RES. 38 (1977) 21-25). […] The cells were then washed twice for five minutes with wash fluid and once with physiological saline. Peroxidase-conjugated rabbit anti-mouse IgG P 2060 (Dakopatts, Denmark) was added to the cells. […] Wells with viral foci were counted using an inverted microscope and the tissue culture infectious dose giving a 50% end point (TCID50) was calculated for each sample. […] 10^R=(V'×10^a')/(V''×10^a'')

[9] = molecular target: T2, human coagulation Factor IX; settings: treatment with molecular iodine; cited from earlier work
[10] = 5 mM CAA, incubation for 4 hours
[11] = CAA 3 mM, Factor VIII (AHF-M) 100 clotting units/mL, pH 5.5, 4 hours at 37° C.
[12] = CAA 3 mM, buffer pH 5.5, 4 hours at 37° C.
[13] = CAA 6 mM, Factor VIII (AHF-M) 100 clotting units/mL, pH 5.5, 4 hours at 37° C.
[14] = CAA 6 mM, buffer pH 5.5, 4 hours at 37° C.
[15] = CAA 3 and 6 mM, with and without Factor VIII, 4 hours

## O=CCCl [CAA, Chloroacetaldehyde]
[1]; 2 mM CAA
  PPV inactivation rate: ~0.6 log10/hour
[1]; [10]
  porcine parvovirus inactivated: 3.2 -4 log10
[1]; 4-hour treatment with 5 mM CAA
  porcine parvovirus inactivated: ≥ 3.6 logs
[1]; CAA 0.5 mM (total), buffer, pH 5.40, 37° C.
  Average PPV Reduction: 0.16 Log10/hour
[1]; CAA 1 mM (total), buffer, pH 5.40, 37° C.
  Average PPV Reduction: 0.26 Log10/hour
[1]; CAA 2 mM (total), 2.5% IgG, pH 5.36, 37° C.
  Average PPV Reduction: 0.61 Log10/hour
[1]; CAA 2 mM (total), buffer, pH 5.50, 37° C.
  Average PPV Reduction: 0.48 Log10/hour
[1]; CAA 5 mM (total), 2.5% IgG, pH 5.50, 37° C.
  Average PPV Reduction: ≧0.79 Log10/hour
[1]; aqueous solutions of chloroacetaldehyde
  concentration effective at inactivating pathogens (as low as): about 1.0 mM
[2]; [11]
  PPV Average rate: ≧0.61 Log10/hour
  PPV Reduction Factor: ≧2.44 Log10/4 hours
[2]; [12]
  PPV Average rate: ≧0.57 Log10/hour
  PPV Reduction Factor: ≧2.27 Log10/4 hours
[2]; [13]
  PPV Average rate: ≧0.52 Log10/hour
  PPV Reduction Factor: ≧2.09 Log10/4 hours
[2]; [14]
  PPV Average rate: ≧0.43 Log10/hour
  PPV Reduction Factor: ≧1.75 Log10/4 hours
[2]; [15]
  PPV reduction factors (limited by assay sensitivity): ≥ 2 log10/4 hours
  PPV reduction rate (limited by assay sensitivity): ≥ 0.5 log10/hour
[3]; CAA 4.2 mM
  FVIII u/mL after 37° C. incubation, 0 hour: 121 u/mL and 95 u/mL
[3]; CAA 8.5 mM
  FVIII u/mL after 37° C. incubation, 0 hour: 88 u/mL and 109 u/mL
  FVIII u/mL after 37° C. incubation, 3 hours: 105 u/mL and 117 u/mL
[3]; CAA 12.7 mM
  FVIII u/mL after 37° C. incubation, 0 hour: 89 u/mL and 106 u/mL
  FVIII u/mL after 37° C. incubation, 3 hours: 91 u/mL and 108 u/mL
[4]; CFIX-M + 1 mM CAA, 0 hour
  % of initial clotting activity remaining after 37° C. incubation: 95.2%
[4]; CFIX-M + 1 mM CAA, 4 hour
  % of initial clotting activity remaining after 37° C. incubation: 93.9%
[4]; CFIX-M + 1 mM CAA, 20 hour
  % of initial clotting activity remaining after 37° C. incubation: 100.3%
[4]; CFIX-M + 5 mM CAA, 0 hour
  % of initial clotting activity remaining after 37° C. incubation: 97.7%
[4]; CFIX-M + 5 mM CAA, 4 hour
  % of initial clotting activity remaining after 37° C. incubation: 100.6%
[4]; CFIX-M + 5 mM CAA, 20 hour
  % of initial clotting activity remaining after 37° C. incubation: 89.1%
[5]; 2 mM
  Pseudorabies Virus Av. rate: 0.66 log10/hour
  Pseudorabies Virus Reduction Factor: 2.10 log10/4 hours
[5]; [10]
  pseudorabies virus inactivated: ≥ 3.2 log10
[5]; 5 mM
  Pseudorabies Virus Av. rate: ≧0.79 log10/hour
  Pseudorabies Virus Reduction Factor: ≧3.15 log10/4 hours

## O=CCI [IAA, Iodoacetaldehyde]
[6]; 80° C. (20 hours)
  Effect on Iodoacetaldehyde, Change: Degraded
[6]; Sodium thiosulfate, 2-20 mM
  Effect on Iodoacetaldehyde, Change: Degraded
[6]; pH 12 (0.5 hour)
  Effect on Iodoacetaldehyde, Change: Degraded
[7]
  aldehyde form, share of the sample: approximately 10%
  hydrated form, share of the sample: approximately 90%
[8]; 180 μM IAA v. 2 mM CAA at the same rate
  potency relative to CAA (PPV inactivation): over 10 times
[8]; IAA 36 μM (hydrated form), 5% IgG, pH 4.64, 37° C.
  PPV Reduction Factor: ≦0.7 Log10/4 hours
[8]; IAA 36 μM (hydrated form), buffer, pH 4.96, 37° C.
  PPV Reduction Factor: 0.8 Log10/4 hours
[8]; IAA 45 μM (hydrated form), 5% IgG, pH 4.64, 37° C.
  PPV Reduction Factor: 0.9 Log10/4 hours
[8]; IAA 45 μM (hydrated form), buffer, pH 4.96, 37° C.
  PPV Reduction Factor: 1.1 Log10/4 hours
[8]; IAA 60 μM (hydrated form), 5% IgG, pH 4.64, 37° C.
  PPV Reduction Factor: 1.2 Log10/4 hours
[8]; IAA 60 μM (hydrated form), buffer, pH 4.96, 37° C.
  PPV Reduction Factor: 1.1 Log10/4 hours
[8]; IAA 90 μM (hydrated form), 5% IgG, pH 4.62, 37° C.
  PPV Reduction Factor: 1.4 Log10/4 hours
[8]; IAA 90 μM (hydrated form), buffer, pH 4.95, 37° C.
  PPV Reduction Factor: 1.7 Log10/4 hours
[8]; IAA 180 μM
  PPV inactivation rate: ~0.6 log10/hour
[8]; IAA 180 μM (hydrated form), 5% IgG, pH 4.61, 37° C.
  PPV Reduction Factor: 2.5 Log10/4 hours
[8]; IAA 180 μM (hydrated form), buffer, pH 4.93, 37° C.
  PPV Reduction Factor: 2.7 Log10/4 hours
[8]; IAA 600 μM (hydrated form), 5% IgG, pH 4.56, 37° C.
  PPV Reduction Factor: ≧4.7 Log10/4 hours
[8]; IAA 600 μM (hydrated form), buffer, pH 4.84, 37° C.
  PPV Reduction Factor: ≧4.7 Log10/4 hours
[8]; IAA hydrate
  concentration effective at inactivating pathogens, e.g., porcine parvovirus (as low as): 50 µM

## II [molecular iodine]
[9]
  effect on Factor IX: completely inactivate
